Reference: PubChem BioAssay (NCI)
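48-hour exposure; five concentrations; linearly interpolated endpoints. The concentration for 50% growth inhibition is given as GI50. TGI: concentration producing complete growth inhibition.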

Tests used:
Assay in all cases: NCI anticancer screen, dose series, 48 h
RXF 393 renal = tested on: RXF 393 renal
KM12 colon = tested on: KM12 colon
SW-620 colon = tested on: SW-620 colon
MALME-3M melanoma = tested on: MALME-3M melanoma
UACC-257 melanoma = tested on: UACC-257 melanoma
HL-60(TB) leukemia = tested on: HL-60(TB) leukemia
MCF7 breast = tested on: MCF7 breast
NCI/ADR-RES ovarian = tested on: NCI/ADR-RES ovarian
MDA-MB-231 breast = tested on: MDA-MB-231 breast
PC-3 prostate = tested on: PC-3 prostate

CCOC(=O)C(N)C[S][Sn]([CH3])([CH3])[Cl] (stereo not given)
GI50 (RXF 393 renal): > 100 µM
TGI (RXF 393 renal): > 100 µM
GI50 (KM12 colon): > 100 µM
TGI (KM12 colon): > 100 µM
GI50 (SW-620 colon): > 100 µM
TGI (SW-620 colon): > 100 µM
GI50 (MALME-3M melanoma): > 100 µM
TGI (MALME-3M melanoma): > 100 µM
GI50 (UACC-257 melanoma): > 100 µM
TGI (UACC-257 melanoma): > 100 µM
GI50 (HL-60(TB) leukemia): > 51.4 µM
TGI (HL-60(TB) leukemia): > 77.4 µM

CC[C@@H]1OC2(C)CC(S(=O)(=O)c3ccccc3O)CC1O2 (stereo not given in full)
TGI (RXF 393 renal): > 100 µM
TGI (KM12 colon): > 100 µM
TGI (SW-620 colon): > 100 µM
TGI (MALME-3M melanoma): > 100 µM
TGI (UACC-257 melanoma): > 100 µM
TGI (HL-60(TB) leukemia): > 100 µM

COc1ccc(-c2onc(-c3ccc([N+](=O)[O-])cc3)c2C2=NCCN2)cc1
TGI (RXF 393 renal): > 100 µM
TGI (KM12 colon): > 100 µM
TGI (SW-620 colon): > 100 µM
TGI (MALME-3M melanoma): > 100 µM
TGI (UACC-257 melanoma): 52.1 µM
TGI (HL-60(TB) leukemia): > 100 µM

C=CC1(C(=O)O)CCC(C(C)(C)C)CC1 (stereo not given)
TGI (RXF 393 renal): > 100 µM
TGI (KM12 colon): > 100 µM
TGI (SW-620 colon): > 100 µM
TGI (MALME-3M melanoma): > 100 µM
TGI (UACC-257 melanoma): > 100 µM
TGI (HL-60(TB) leukemia): > 100 µM

O=C(/C=C/c1ccc([N+](=O)[O-])o1)N1CCN(Cc2ccccc2)CC1
TGI (RXF 393 renal): 24.5 µM
TGI (KM12 colon): 27.1 µM
TGI (SW-620 colon): 21.6 µM
TGI (UACC-257 melanoma): 20.8 µM
TGI (HL-60(TB) leukemia): 18.4 µM

NC(=O)C(=Cc1ccc(C(O)P(=O)(O)O)cc1)C(N)=O (stereo not given)
TGI (RXF 393 renal): > 100 µM
TGI (KM12 colon): > 100 µM
TGI (SW-620 colon): > 100 µM
TGI (MALME-3M melanoma): > 100 µM
TGI (UACC-257 melanoma): > 100 µM

CCOC(=O)c1cc(C#N)c(=O)n(/N=C(\C)c2ccncc2)c1O
GI50 (MCF7 breast): > 100 µM
TGI (MCF7 breast): > 100 µM
GI50 (NCI/ADR-RES ovarian): > 100 µM
TGI (NCI/ADR-RES ovarian): > 100 µM
GI50 (KM12 colon): > 100 µM
TGI (KM12 colon): > 100 µM
GI50 (SW-620 colon): > 100 µM
TGI (SW-620 colon): > 100 µM
GI50 (MALME-3M melanoma): > 100 µM
TGI (MALME-3M melanoma): > 100 µM
GI50 (MDA-MB-231 breast): > 100 µM
TGI (MDA-MB-231 breast): > 100 µM
GI50 (PC-3 prostate): > 100 µM
TGI (PC-3 prostate): > 100 µM
GI50 (UACC-257 melanoma): > 100 µM
TGI (UACC-257 melanoma): > 100 µM

C=C1C(=O)O[C@H]2[C@H]1CC/C(CNC(=O)c1cc3cc(OC)ccc3[nH]1)=C\CC[C@@]1(C)O[C@@H]21
GI50 (RXF 393 renal): 1.17 µM
TGI (RXF 393 renal): 2.61 µM
GI50 (NCI/ADR-RES ovarian): 6.07 µM
TGI (NCI/ADR-RES ovarian): 23.7 µM
GI50 (KM12 colon): 4.98 µM
TGI (KM12 colon): 17.7 µM
GI50 (SW-620 colon): 1.15 µM
TGI (SW-620 colon): 2.77 µM
GI50 (MALME-3M melanoma): 1.62 µM
TGI (MALME-3M melanoma): 3.98 µM
GI50 (MDA-MB-231 breast): 1.71 µM
TGI (MDA-MB-231 breast): 4.49 µM
GI50 (PC-3 prostate): 1.86 µM
TGI (PC-3 prostate): 4.04 µM
GI50 (HL-60(TB) leukemia): 1.97 µM
TGI (HL-60(TB) leukemia): 6.37 µM

CC/C(C)=C1\CCC(CN2CCOCC2)C1=O (stereo not given)
TGI (RXF 393 renal): 22 µM
TGI (KM12 colon): > 100 µM
TGI (SW-620 colon): 34.5 µM
TGI (MALME-3M melanoma): 33 µM
TGI (UACC-257 melanoma): 31.5 µM
TGI (HL-60(TB) leukemia): 44 µM

COc1cc(/C=C(\C#N)C(=O)c2ccccc2)ccc1OCc1ccccc1
TGI (KM12 colon): > 100 µM
TGI (SW-620 colon): > 100 µM
TGI (UACC-257 melanoma): > 100 µM
TGI (HL-60(TB) leukemia): > 100 µM

Cc1c(NC(=O)C(C)(C)Br)c(=O)oc2c(C)c3occc(=O)c3cc12
TGI (RXF 393 renal): > 100 µM
TGI (SW-620 colon): > 100 µM
TGI (MALME-3M melanoma): > 100 µM
TGI (UACC-257 melanoma): > 100 µM
TGI (HL-60(TB) leukemia): > 100 µM

CC1C[C@@]2(c3ccccc3)C(=O)CCC[C@H]2N1 (stereo not given in full)
TGI (RXF 393 renal): > 100 µM
TGI (KM12 colon): > 100 µM
TGI (SW-620 colon): > 100 µM
TGI (MALME-3M melanoma): > 100 µM
TGI (UACC-257 melanoma): > 100 µM
TGI (HL-60(TB) leukemia): > 100 µM

O=C1c2ccccc2-c2cccc3ccc(Cc4ccc5ccccc5c4)c1c23
TGI (RXF 393 renal): > 100 µM
TGI (KM12 colon): > 100 µM
TGI (SW-620 colon): > 100 µM
TGI (MALME-3M melanoma): > 100 µM
TGI (UACC-257 melanoma): > 100 µM
TGI (HL-60(TB) leukemia): > 100 µM

COc1cc(Cl)c2c3c(c(C(C)=O)oc13)CCC2
TGI (RXF 393 renal): > 100 µM
TGI (SW-620 colon): > 100 µM
TGI (UACC-257 melanoma): > 100 µM
TGI (HL-60(TB) leukemia): > 100 µM

CCNC(=O)CCN(C(=O)O)S(=O)(=O)c1ccc(NC(=O)c2ccccc2)cc1
TGI (KM12 colon): > 100 µM
TGI (SW-620 colon): 32 µM
TGI (MALME-3M melanoma): > 100 µM
TGI (UACC-257 melanoma): > 100 µM
TGI (HL-60(TB) leukemia): > 100 µM

O=S(=O)(N/N=C/c1ccc(/C=N/NS(=O)(=O)c2ccccc2)cc1)c1ccccc1
TGI (RXF 393 renal): 77.4 µM
TGI (KM12 colon): > 100 µM
TGI (MALME-3M melanoma): > 100 µM
TGI (UACC-257 melanoma): > 100 µM
TGI (HL-60(TB) leukemia): 53.3 µM

CCC1(CC)C(=O)OC(=O)C1(CC)CC
TGI (NCI/ADR-RES ovarian): > 100 µM
TGI (KM12 colon): > 100 µM
TGI (SW-620 colon): > 100 µM
TGI (MDA-MB-231 breast): > 100 µM
TGI (PC-3 prostate): > 100 µM
TGI (HL-60(TB) leukemia): > 100 µM

CCCCCCCCC[C@@H]1CC(=O)OCC2OC(O[C@H](CCCCCCCCC)CC(=O)OCC3OC(O[C@H](CCCCCCCCC)CC(=O)OCC4OC(O1)C(O)C(O)C4O)C(O)C(O)C3O)C(O)C(O)C2O (stereo not given in full)
TGI (RXF 393 renal): 30.9 µM
TGI (KM12 colon): 20.2 µM
TGI (SW-620 colon): 17.8 µM
TGI (MALME-3M melanoma): 22.3 µM
TGI (UACC-257 melanoma): 24.2 µM
TGI (HL-60(TB) leukemia): 31.8 µM

NNC(=O)/C(=C/c1ccc(Cl)c(Cl)c1)NC(=O)c1ccccc1
TGI (RXF 393 renal): > 100 µM
TGI (KM12 colon): > 100 µM
TGI (SW-620 colon): > 100 µM
TGI (MALME-3M melanoma): > 100 µM
TGI (UACC-257 melanoma): > 100 µM
TGI (HL-60(TB) leukemia): > 100 µM

COc1ccccc1N1C(=O)/C(=C/c2ccc(N(CCC#N)CCC#N)cc2C)N=C1c1cc([N+](=O)[O-])ccc1Cl
TGI (KM12 colon): > 100 µM
TGI (MALME-3M melanoma): > 100 µM
TGI (UACC-257 melanoma): > 100 µM
TGI (HL-60(TB) leukemia): > 100 µM
